Experimental findings from patent US7273856B2, “Linear basic compounds having NK-2 antagonist activity and formulations thereof” (Menarini Ricerche S.P.A., priority 2001, dated 2007) are described below.

The target in this assay is T1, human NK-2 receptor (Homo sapiens, UniProt P21452).
T1 construct: expressed in transfected cells; host or cells: CHO (Chinese hamster ovary) cells, membranes
T1 sequence (P21452 1-398): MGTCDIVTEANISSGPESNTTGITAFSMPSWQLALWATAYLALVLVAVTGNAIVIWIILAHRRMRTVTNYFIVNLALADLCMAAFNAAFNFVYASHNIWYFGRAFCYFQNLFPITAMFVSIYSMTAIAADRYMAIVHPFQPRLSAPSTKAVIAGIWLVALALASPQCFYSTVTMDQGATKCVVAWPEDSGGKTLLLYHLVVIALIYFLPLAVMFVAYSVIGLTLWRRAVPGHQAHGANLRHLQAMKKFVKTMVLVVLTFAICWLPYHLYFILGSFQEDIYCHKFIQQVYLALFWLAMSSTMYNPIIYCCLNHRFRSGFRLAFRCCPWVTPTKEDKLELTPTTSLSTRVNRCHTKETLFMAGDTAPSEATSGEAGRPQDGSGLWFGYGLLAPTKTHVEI
Nature of the assay: binding test, affinity for the human NK-2 receptor, competition with [125I]NKA on transfected CHO cell membranes. The conditions noted are these: CHO cell membranes transfected with NK-2 receptor of human ileum; [125I]NKA 100 pM; 30 min, 20° C. Here is the method: The evaluation of the antagonist activity on NK-2 receptors has been assessed by binding and functional tests according to that already described in literature in relation to NK-2 antagonists.
The test substances have been tested within a concentration range from 0.01 nM to 10 nM. At the end of the incubation time (30 min, 20° C.) the samples have been filtered and radioactivity has been determined using a gamma-counter.

Values joined by “and” are separate entries in the source; they are usually repeats but may differ in a detail not shown here. Equal values may be shown once. Where a name gives a salt, the structure may show the parent alone.

As for `O=C(NC1(C(=O)N[C@H](Cc2ccccc2)C(=O)NCC2CCN(CC3CCOCC3)CC2)CCCC1)c1cc2ccc(I)cc2s1` [Example 129, 6-Iodo-benzo[b]thiophene-2-carboxylic acid [1-(2-phenyl-1R-{[1-(tetrahydro-pyran-4-ylmethyl)-piperidin-4-ylmethyl]-carbamoyl}-ethylcarbamoyl)-cyclopentyl]-amide], the affinity, expressed as Ki, was 50.1 pM.
As for “N^γ{N^α[N^α(benzo[b]thiophen-2-ylcarbonyl)-1-aminocyclopentan-1-carboxy]-D-phenylalanyl}-(1R,3S)-3-aminocyclopentane-1-carboxylic-acid-N-((1S,2S)2-dimethylaminocyclohexyl) amide hydrochloride salt [Example 8]”, the pKi – broadly, the Ki on a negative log10 scale, so that one unit is a factor of ten – came to 9.6.
As for `Cn1c(C(=O)NC2(C(=O)N[C@H](Cc3ccccc3)C(=O)NCCCN3CCOCC3)CCCC2)cc2ccc(Cl)cc21` [Example 111, 6-Chloro-1-methyl-1H-indole-2-carboxylic acid {1-[1R-(3-morpholin-4-yl-propylcarbamoyl)-2-phenyl-ethylcarbamoyl]-cyclopentyl}-amide], the Ki – broadly, a dissociation constant, usually derived from enzyme kinetics or from competition with a known ligand – is 200 pM.
Take `O=C(NC1(C(=O)N[C@H](Cc2ccccc2)C(=O)NCC2CCN(CC3COCOC3)CC2)CCCC1)c1ccc2cc(Br)ccc2c1` [Example 89, 6-Bromo-naphthalene-2-carboxylic acid (1-{1(R)-[(1-[1,3]dioxan-5-ylmethyl-piperidin-4-ylmethyl)-carbamoyl]-2-phenyl-ethylcarbamoyl}-cyclopentyl)-amide]: the Ki was 126 pM.
`O=C(NC1(C(=O)N[C@H](Cc2ccccc2)C(=O)NCCCN2CCOCC2)CCCC1)c1cc2cc(Cl)ccc2o1` [Example 102, 5-Chloro-benzofuran-2-carboxylic acid {1-[1R-(3-morpholin-4-yl-propylcarbamoyl)-2-phenyl-ethylcarbamoyl]-cyclopentyl}-amide]: the Ki was 501 pM.
`O=C(NC1(C(=O)N[C@H](Cc2ccccc2)C(=O)NCCC2CCN(C(=O)[C@H]3CCCN3)CC2)CCCC1)c1ccc2cc(Br)ccc2c1` [Example 99, 6-Bromo-naphthalene-2-carboxylic acid [1-(2-phenyl-1(R)-{2-[1-(pyrrolidine-2(R)-carbonyl)-piperidin-4-yl]-ethylcarbamoyl}-ethylcarbamoyl)-cyclopentyl]-amide] showed a Ki of 316 pM.
`Cn1c(C(=O)NC2(C(=O)N[C@H](Cc3ccccc3)C(=O)N[C@H]3CC[C@@H](C(=O)N[C@H]4CCCC[C@@H]4N)C3)CCCC2)cc2ccccc21.O=C(O)C(F)(F)F` [Example 4, N^γ{N^α[N^α(N-(methyl)indol-2-ylcarboxy)-1-aminocyclopentan-1-carboxy]-D-phenylalanyl}-(1R,3S)-3-aminocyclopentane-1-carboxylic-acid-N-((1S,2S)-2-aminocyclohexyl) amide trifluoroacetate salt] displayed a pKi of 9.8.
Molecule `CC(C)N1CCC(CNC(=O)[C@@H](Cc2ccccc2)NC(=O)C2(NC(=O)c3cc4ccccc4s3)CCCC2)CC1` [Example 70, Benzo[b]thiophene-2-carboxylic acid (1-{1-(R)-[(1-isopropyl-piperidin-4-ylmethyl)-carbamoyl]-2-phenyl-ethylcarbamoyl}-cyclopentyl)-amide] showed a Ki of 1580 pM.
Same read-out and setting: as for `O=C(NC1(C(=O)N[C@H](Cc2ccccc2)C(=O)NCCCN2CCOCC2)CCCC1)c1cc2cc(Br)ccc2o1` [Example 104, 5-Bromo-benzofuran-2-carboxylic acid {1-[1R-(3-morpholin-4-yl-propylcarbamoyl)2-phenyl-ethylcarbamoyl]-cyclopentyl}-amide], the figure is 501 pM and 316 pM.
`O=C(NC1(C(=O)N[C@H](Cc2ccccc2)C(=O)NCC2CCN(C3CCSCC3)CC2)CCCC1)c1cc2ccccc2s1` [Example 81, Benzo[b]thiophene-2-carboxylic acid [1-(2-phenyl-1(R)-{[1-(tetrahydro-thiopyran-4-yl)-piperidin-4-ylmethyl]-carbamoyl}-ethylcarbamoyl)-cyclopentyl]-amide TFA salt] had a Ki of 79.4 pM.
Regarding `O=C(NC1(C(=O)N[C@H](Cc2ccccc2)C(=O)NCC2CCN(CC3CCOCC3)CC2)CCCC1)c1cc2ccc(Cl)cc2o1` [Example 120], the affinity corresponds to a Ki of 316 pM.
As for `CN(C)[C@H]1CCCC[C@@H]1NC(=O)[C@@H]1CC[C@H](NC(=O)[C@@H](Cc2ccccc2)NC(=O)C2(NC(=O)c3cc4ccccc4o3)CCCC2)C1` [Example 11, N^γ{N^α[N^α(benzofuran-2-ylcarboxy)-1-aminocyclopentan-1-carboxy]-D-phenylalanyl}-(1R,3S)-3-aminocyclopentane-1-carboxylic-acid-N-((1S,2S)-2-dimethylaminocyclohexyl)amide hydrochloride salt], the inhibition constant Ki is 2000 pM.
As for `O=C(NC1(C(=O)N[C@H](Cc2ccccc2)C(=O)NCCCN2CCOCC2)CCCCC1)c1cc2ccccc2s1` [Example 20, N^α[N^α(benzo[b]thiophen-2-yl-carbonyl)-1-aminocyclohexan-1-carboxy]-D-phenylalanine-N-[3(morpholin-4-yl)propyl]amide], the pKi stood at 9.1.
For the molecule `C[C@](Cc1ccccc1)(NC(=O)c1cc2ccccc2s1)C(=O)N[C@H](Cc1ccccc1)C(=O)NCCCN1CCOCC1` [Example 34, N^α[N^α(benzo[b]thiophen-2-ylcarbonyl)-D-α-methylphenylalanil]-D-phenylalanine-N-[3-(morpholin-4-yl)propyl]amide], the Ki was 1260 pM.
